Data from patent publication US9624485B2, “Genetic incorporation of unnatural amino acids into proteins in mammalian cells” (The Scripps Research Institute, priority 2006, dated 2017).

How the values were obtained:
position 37 of GFP = assay: Fidelity of unnatural amino acid incorporation by nano-RP LC/MS/MS and ESI TOF-MS; conditions: for wild type peptide signals in tandem MS of mutant GFP: nano-RP LC/MS/MS of tryptic fragments, T-REx CHO cells
From the text: To further characterize GFP-pMpa, the mutant protein was expressed in T-REx™ CHO cells transiently transfected with both pSWAN-pMpaRS and pSWAN-GFP37TAG. The protein was purified using an anti-myc antibody agarose column and then separated by SDS-PAGE. The GFP-pMpa band from the SDS-PAGE gel was digested with trypsin and analyzed by nanoscale reversed-phase liquid chromatography/mass spectrometry/mass spectrometry (nano-RP LC/MS/MS). In parallel, wild type GFP was purified from cells transfected with pcDNA4-GFP and subjected to the same analysis.
Proteolysis of affinity purified proteins (performed for wild-type and pBpa samples) was carried out by overnight incubation of proteins at 37° C. with sequencing-grade modified trypsin (Promega) using a substrate/enzyme ratio of 10:1 (wt/wt) based on the estimated protein concentration in 100 mM triethylammonium bicarbonate buffer (pH 8.5). In-gel digestions (performed for pMpa, pAzpa, pApa, and pPpa samples) were performed according to a modified EMBL procedure (see the website for EMBL, Heidelberg, Germany, Bioanalytical Research Group). Briefly, gel slices were excised to approximately 1 mm×1 mm cubes, washed for 5 minutes with water, 15 minutes with acetonitrile, and dried in a vacuum centrifuge before being rehydrated at 0° C. for 30 minutes with 12.5 ng/μl of sequencing-grade modified trypsin in 50 mM triethylammonium bicarbonate buffer (pH 8.5). Excess buffer was removed and 20 μl of 50 mM triethylammonium bicarbonate buffer (pH 8.5) was added to the gel slices before incubating at 37° C. overnight. Peptides were extracted from the gel slices as described in the protocol.
Nano-RP LC/MS/MS was performed with an HPLC pump, autosampler (Agilent Technologies, Palo Alto, Calif.), and an LTQ Orbitrap hybrid mass spectrometer (ThermoElectron, San Jose, Calif.). Tryptic digests were loaded with a pressure bomb onto a 75 μm i.d. precolumn packed with 4 cm of 5-μm Monitor C18 particles (Column Engineering, Ontario, Calif.) at a flow rate of approximately 2 μl/min. The precolumn was then connected to the HPLC pump and after several minutes of washing with solvent A the analytical column with integrated emitter tip (360 μm O.D.×75 μm i.d; 10 cm of 5 μM C18, ˜5-μm tip) was connected in series. The chromatographic profile was from 100% solvent A (0.1% aqueous acetic acid) to 50% solvent B (0.1% acetic acid in acetonitrile) in 40 min; the flow rate through the analytical column was ca. 100 nl/min.
For data-dependent experiments, the mass spectrometer was programmed to first record a high-resolution Orbitrap scan then a full-scan ion trap spectrum (m/z 500-2,000). This was followed by 10 data-dependent MS/MS scans (relative collision energy=35%; 3-Da isolation window) triggered of the ion-trap scan and finally two targeted MS/MS scans. The first targeted MS/MS scan was set to isolate and fragment the doubly charged precursor ion of the predicted unnatural amino acid modified peptide
at m/z 752.3. The raw data were searched against the MSDB database using MASCOT (Matrixscience, London, UK) for protein identification and to find the scans containing the target peptides with the unnatural amino acids as variable modification. To estimate fidelity at Y*37 of GFP-pMpa, single ion chromatograms (doubly charged precursor ions at m/z 752.3 for the wt and 759.3 for pMpa) and selected ion chromatograms (y9, y11, and y12) were integrated using the Xcalibur software package (ThermoElectron, San Jose, Calif.).
Intact protein mass spectra were acquired on an automated LC/MS system (Waters, Milford, Mass.) consisting of a capillary LC with auto-sampler and a QTOF2 mass spectrometer. GFP-pMpa (0.1 mg/ml) was loaded onto a reversed-phase protein Captrap (Michrom Bioresources, Auburn, Calif.) for desalting with 0.1% acetic acid in water and eluted with 80% acetonitrile/0.1% acetic acid at 5 μl/min into the ESI source of the mass spectrometer. […]

[1] = system: amber codon in GFP37TAG in T-REx 293 cells; assay: Amber suppression of GFP37TAG by BstRNACUA^Tyr/EcTyrRS variants, Western blot of full-length GFP; type: cell-based, human; conditions: 8 mM in media, 48 hours
Description: (§1) The ability of the six EcTyrRS variants together with BstRNACUA^Tyr to suppress the amber codon in GFP37TAG was then tested in the presence and absence of unnatural amino acids in the growth media. Transient transfection of cells with plasmids was carried out as described for wild type EcTyrRS. Six hours after transfection, the media were replaced by the fresh media containing 1 μg/ml tetracycline and supplemented with the corresponding unnatural amino acid (pMpa, 10 mM; pApa, 10 mM; pBpa, 1 mM; plpa, 8 mM; pAzpa, 5 mM; or pPpa, 1 mM). Cells were then grown 24 hours for T-REx™ CHO cell lines and 48 hours for T-REx™ 293 cell lines before harvesting. In both T-REx™ CHO and 293 cells, the expression of full length GFP37TAG was dependent upon the presence of unnatural amino acids in the growth media as indicated in FIG. 2 and FIG. 3. […]
(§2) For Western blot analysis, harvested cells were lysed in RIPA buffer (Upstate Biotechnology/Millipore) with a 1:100 dilution of protease inhibitor cocktail (Sigma). […] Chemiluminescence was then detected with PIERCE ECL Western Blotting substrate. For T-REx™ 293 cells, the membranes were probed with anti-His-HRP (Invitrogen™; 1:5000 dilution) and then detected with PIERCE ECL Western Blotting substrate.

T-REx 293 cells = assay: Cellular toxicity of the unnatural amino acid in growth media; type: cell-based, human; conditions: 8 mM in media
[2] = system: amber codon in GFP37TAG in T-REx CHO cells; assay: Amber suppression of GFP37TAG by BstRNACUA^Tyr/EcTyrRS variants, Western blot of full-length GFP; type: cell-based, Chinese hamster; conditions: 8 mM in media, 24 hours
Description: as §1, §2

Compound: [N-]=[N+]=Nc1ccc(C[C@H](N)C(=O)O)cc1 [pAzpa, p-azido-L-phenylalanine]
- stability of the azido amino acid in mutant GFP seen by tandem MS (position 37 of GFP; mutant GFP containing pAzpa): Most of pAzpa decays to pAmpa
- wild type peptide signals in tandem MS of mutant GFP (position 37 of GFP): No wild type signals could be detected

Compound: C#CCOc1ccc(C[C@H](N)C(=O)O)cc1 [pPpa, p-propargyloxyphenylalanine]
- wild type peptide signals in tandem MS of mutant GFP (position 37 of GFP): No wild type signals could be detected

Compound: COc1ccc(C[C@H](N)C(=O)O)cc1 [pMpa, p-methoxy-L-phenylalanine]
- wild type GFP signals in intact protein ESI TOF-MS (position 37 of GFP; affinity purified GFP-pMpa): No wild type GFP signals

Compound: CC(=O)c1ccc(C[C@H](N)C(=O)O)cc1 [pApa, p-acetyl-L-phenylalanine]
- wild type peptide signals in tandem MS of mutant GFP (position 37 of GFP): No wild type signals could be detected

Compound: N[C@@H](Cc1ccc(I)cc1)C(=O)O [plpa, p-iodo-L-phenylalanine]
- expression of GFP containing the unnatural amino acid [1]: no GFP expression
- time until cells die (cellular toxicity) (T-REx 293 cells): 6 h
- expression level of GFP containing the unnatural amino acid [2]: low expression level

Compound: N[C@@H](Cc1ccc(C(=O)c2ccccc2)cc1)C(=O)O [pBpa, p-benzoyl-L-phenylalanine]
- wild type peptide signals in tandem MS of mutant GFP (position 37 of GFP): trace amount of the wild type peptide
